Among the test systems are MOLT-4; SF-539; SF-295; HCT-15; TK-10; SK-MEL-5; 786-0; UACC-257; COLO 205; M14; OVCAR-4; KM12; NCI-H522; NCI-H226; HL-60; SNB-75; HT-29.
Common to all, as to assay: NCI tumour cell line growth inhibition, 48 h

SMILES strings stand for the structures.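 Where inhibition never reached the appropriate level, the endpoint shown equals the highest concentration tested. Otherwise, values were interpolated linearly from a five-concentration, 48-hour dose response in 96-well plates. At the GI50, growth is halved.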 Calls of active or inactive are those of the source. No stated cut-off is given here; in the data, active = GI50 up to about 1.1 µM and inactive = higher.

As to `COC(=O)C(=O)C(C(=O)C(=O)Nc1cc(C)ccc1C)c1nc2ccc(C(=O)c3ccccc3)cc2nc1O` (stereo unspecified), the GI50 with MOLT-4 was 48.9 µM (inactive); in the experiment on SF-539, > 100 µM (inactive); in the experiment with SF-295, 83.6 µM (inactive); with HCT-15, more than 100 µM; with TK-10, > 100 µM (inactive); with SK-MEL-5, 62.1 µM (inactive). The GI50 in the experiment with 786-0 was > 100 µM (inactive); in the experiment with UACC-257 it was > 100 µM (inactive); with COLO 205, > 100 µM (inactive); in the experiment on M14, > 100 µM (inactive); with OVCAR-4, > 100 µM (inactive); with KM12, 71.4 µM (inactive). Besides, the values for the GI50 in the experiment on NCI-H522 and in the experiment with NCI-H226 were 36.3 µM (inactive) and 62.1 µM (inactive), respectively.
Turning to `CC(C)N1CCOC(c2ccc(O)c(O)c2)C1` (stereo unspecified), the GI50 was > 100 µM (inactive) in the experiment on MOLT-4; > 100 µM (inactive) with HL-60; > 100 µM (inactive) with SF-295; > 100 µM (inactive) with SNB-75; more than 100 µM in the experiment on HCT-15; > 100 µM (inactive) with TK-10. Further, the GI50 with SK-MEL-5, in the experiment on HT-29, with 786-0, in the experiment on UACC-257, in the experiment with COLO 205 and with M14 was > 100 µM (inactive) in each case. The GI50 with OVCAR-4, with KM12 and in the experiment on NCI-H522 was > 100 µM (inactive) throughout.
Take `NC(=S)N/N=C1/C(=O)N(c2ccc(Cl)cc2Cl)C(=O)C(=O)C1c1nc2ccccc2s1` (stereo unspecified): the GI50 in the experiment on MOLT-4 was 52.1 µM (inactive); with SF-539 it was > 100 µM (inactive); in the experiment with SF-295, > 100 µM (inactive); in the experiment with SNB-75, > 100 µM (inactive); with HCT-15 it was more than 100 µM; in the experiment on TK-10, > 100 µM (inactive). For the same compound, the GI50 in the experiment with SK-MEL-5, in the experiment on HT-29, with 786-0, in the experiment with UACC-257, in the experiment with COLO 205 and in the experiment with M14 was > 100 µM (inactive) in each case. Also, the GI50 with OVCAR-4, in the experiment with KM12, with NCI-H522 and with NCI-H226 was > 100 µM (inactive) in each case.
As to `C[N+](C)(C)CC(=O)N/N=C(\C(=O)Nc1ccc(Cl)cc1)C1C(=O)N(c2ccccc2)N=C1N` (stereo unspecified), the GI50 in the experiment with MOLT-4 is > 100 µM (inactive); in the experiment with SF-539 it was > 100 µM (inactive); with HL-60 it was > 100 µM (inactive); with SNB-75, > 100 µM (inactive); in the experiment on HCT-15 it was more than 100 µM; with TK-10, > 100 µM (inactive). Further, the GI50 in the experiment on SK-MEL-5, in the experiment with HT-29, with 786-0, with UACC-257, in the experiment on COLO 205 and with M14 was > 100 µM (inactive) throughout. The GI50 in the experiment on OVCAR-4, with KM12 and in the experiment on NCI-H522 was > 100 µM (inactive) each time.
On to `CN(C(=O)C12C3C4C1C1C2C3C41I)C(C)(C)C` (stereo unspecified), for which the GI50 in the experiment on SF-539 was > 100 µM (inactive); with HL-60, 33 µM (inactive); in the experiment with SF-295, > 100 µM (inactive); in the experiment with SNB-75, > 65.6 µM (inactive); with HCT-15, 63.1 µM; in the experiment on TK-10, > 57.4 µM (inactive). For the same compound, the GI50 in the experiment on SK-MEL-5 is > 63.1 µM (inactive); with HT-29 it was > 95.1 µM (inactive); in the experiment on 786-0, > 100 µM (inactive); with UACC-257 it was > 88.5 µM (inactive); in the experiment on COLO 205, > 87.1 µM (inactive); in the experiment with M14, > 100 µM (inactive). Besides, the GI50 is > 100 µM (inactive) with OVCAR-4, > 100 µM (inactive) in the experiment on KM12, 48 µM (inactive) in the experiment on NCI-H522 and > 51.5 µM (inactive) with NCI-H226.
Take `N#CC(C(=O)/C(=N/NC(=O)c1ccccc1O)C(C#N)c1ccccc1)c1ccccc1` (stereo unspecified): the GI50 in the experiment on SF-539 was > 100 µM (inactive); in the experiment on SF-295 it was > 100 µM (inactive); with SNB-75, > 100 µM (inactive); in the experiment with HCT-15, more than 100 µM; with TK-10, > 100 µM (inactive); in the experiment with HT-29, > 100 µM (inactive). The GI50 in the experiment on 786-0, with UACC-257, in the experiment on COLO 205, in the experiment on M14, in the experiment on OVCAR-4 and with KM12 was > 100 µM (inactive) throughout. Further, the GI50 with NCI-H226 was > 100 µM (inactive).
In the case of `CN(C)/C=C/C(=CC=[N+](C)C)/C=C/N(C)C.[O-][Cl+3]([O-])([O-])[O-]`, the GI50 with MOLT-4 was 90.4 µM (inactive); in the experiment on SF-539, > 100 µM (inactive); with HL-60, > 100 µM (inactive); in the experiment on SF-295, > 100 µM (inactive); with TK-10, > 100 µM (inactive); with SK-MEL-5, > 100 µM (inactive). Moreover, the GI50 in the experiment with HT-29, in the experiment on 786-0, with UACC-257, in the experiment on M14, in the experiment with OVCAR-4 and with KM12 was > 100 µM (inactive) in each case. For the same compound, the GI50 in the experiment with NCI-H522 and in the experiment with NCI-H226 was > 100 µM (inactive) throughout.
Turning to `C=C1CC(CC(=O)C(C)CC2CC(=C)C(=O)O2)OC1=O` (stereo unspecified), the GI50 was 11.5 µM (inactive) with MOLT-4; 18.8 µM (inactive) with SF-539; 14 µM (inactive) in the experiment with HL-60; > 100 µM (inactive) in the experiment with SF-295; 61.4 µM (inactive) in the experiment with SNB-75; 18.1 µM in the experiment on HCT-15. In addition, the GI50 was 19.1 µM (inactive) in the experiment with TK-10; 33.3 µM (inactive) in the experiment with SK-MEL-5; 26.2 µM (inactive) in the experiment with HT-29; 20.3 µM (inactive) in the experiment on 786-0; 16.4 µM (inactive) in the experiment with UACC-257; 13.6 µM (inactive) in the experiment on COLO 205. Moreover, the GI50 was 15.8 µM (inactive) with M14, 16.4 µM (inactive) in the experiment on OVCAR-4 and 10.5 µM (inactive) in the experiment with KM12.
Consider `CN(C)CC1CCC(CN(C)C)C1=NO` (stereo unspecified), for which the GI50 was > 100 µM (inactive) in the experiment on MOLT-4; > 100 µM (inactive) in the experiment with SF-539; > 10 µM (inactive) in the experiment with SF-295; > 10 µM (inactive) with SNB-75; more than 100 µM in the experiment on HCT-15; > 100 µM (inactive) in the experiment with TK-10. For the same compound, the GI50 in the experiment on SK-MEL-5, with HT-29, with 786-0, in the experiment with UACC-257, in the experiment with COLO 205 and in the experiment with M14 was > 100 µM (inactive) each time. Besides, the GI50 with OVCAR-4 and in the experiment with NCI-H522 was > 100 µM (inactive) each time.
In the case of `NC(=S)N/N=C/C(=C/Nc1ccccc1)[N+](=O)[O-]`, the GI50 was > 100 µM (inactive) in the experiment on SF-539; > 100 µM (inactive) in the experiment with HL-60; > 100 µM (inactive) in the experiment with SF-295; > 100 µM (inactive) with SNB-75; more than 100 µM with HCT-15; > 100 µM (inactive) with TK-10. Further, the GI50 in the experiment with HT-29, in the experiment on 786-0, in the experiment on UACC-257, in the experiment with COLO 205, with M14 and with OVCAR-4 was > 100 µM (inactive) each time. In addition, the GI50 in the experiment on NCI-H522 is > 100 µM (inactive); with NCI-H226 it was 53 µM (inactive).
Turning to `O=C(Nc1cc(Cl)cc(Cl)c1)/C(Cc1nc2ccccc2nc1O)=N/NC(=O)c1ccncc1`, the GI50 in the experiment on MOLT-4 is > 100 µM (inactive); in the experiment with SF-539 it was > 100 µM (inactive); in the experiment with HL-60, > 100 µM (inactive); with SF-295 it was > 100 µM (inactive); in the experiment on HCT-15, more than 100 µM; with TK-10, > 100 µM (inactive). Moreover, the GI50 in the experiment with SK-MEL-5, with 786-0, with UACC-257, with COLO 205, in the experiment with M14 and in the experiment with OVCAR-4 was > 100 µM (inactive) throughout. Besides, in the experiment with KM12, the GI50 is > 100 µM (inactive).
Consider `CCCCCCCC(=O)OCC1OC(n2cc(F)c(=O)[nH]c2=O)C(NC(=O)OCc2ccccc2)C(O)C1O` (stereo unspecified), for which the GI50 is 27.9 µM (inactive) in the experiment with MOLT-4; 83.4 µM (inactive) in the experiment on SF-539; 40.3 µM (inactive) in the experiment on HL-60; > 100 µM (inactive) with SF-295; 29.3 µM (inactive) in the experiment with SNB-75; more than 100 µM in the experiment on HCT-15. For the same compound, the GI50 in the experiment on TK-10 was > 100 µM (inactive); in the experiment with SK-MEL-5 it was 1.55 µM (inactive); in the experiment with HT-29 it was > 100 µM (inactive); in the experiment on 786-0, > 100 µM (inactive); in the experiment on UACC-257 it was > 100 µM (inactive); with COLO 205 it was 37.8 µM (inactive). In addition, the GI50 was > 100 µM (inactive) in the experiment on M14, > 100 µM (inactive) with OVCAR-4, 32.4 µM (inactive) in the experiment with KM12 and 26.2 µM (inactive) in the experiment with NCI-H522.
Turning to `O=C1c2ccccc2C(=O)c2[nH]c(Cc3ccc(F)cc3)nc21`, the GI50 in the experiment on MOLT-4 is 24.8 µM (inactive); with SF-539 it was 17.8 µM (inactive); in the experiment with HL-60 it was 17.9 µM (inactive); with SF-295, 16.7 µM (inactive); with SNB-75, 20.9 µM (inactive); with HCT-15, 6.44 µM. Besides, the GI50 in the experiment on TK-10 was 34.1 µM (inactive); in the experiment with HT-29 it was 15.9 µM (inactive); in the experiment on 786-0, 16.9 µM (inactive); in the experiment on UACC-257, 16.3 µM (inactive); with COLO 205 it was 22.1 µM (inactive); with M14, 15.3 µM (inactive). Moreover, the GI50 with OVCAR-4 is 14.8 µM (inactive); with KM12, 16.2 µM (inactive); in the experiment on NCI-H522, 14.5 µM (inactive); with NCI-H226, 22.8 µM (inactive).
